Source: patent US20160159814A1, “GLYCINE TRANSPORTER INHIBITOR” (TAISHO PHARMACEUTICAL CO., LTD., priority 2013, published 2016)

molecular target: T1, human type 1 glycine transporter (GlyT1) (Homo sapiens, UniProt P48067); experiment: Glycine uptake inhibition experiment ([3H] glycine uptake in T98G cells expressing GlyT1); assay type: cell-based; settings: not given
T1 construct: T98G cells (glioma cells) expressing human type 1 glycine transporter (GlyT1) were used; endogenous in cells; host or cells: T98G cells (human glioma cells)
T1 sequence (P48067 1-706): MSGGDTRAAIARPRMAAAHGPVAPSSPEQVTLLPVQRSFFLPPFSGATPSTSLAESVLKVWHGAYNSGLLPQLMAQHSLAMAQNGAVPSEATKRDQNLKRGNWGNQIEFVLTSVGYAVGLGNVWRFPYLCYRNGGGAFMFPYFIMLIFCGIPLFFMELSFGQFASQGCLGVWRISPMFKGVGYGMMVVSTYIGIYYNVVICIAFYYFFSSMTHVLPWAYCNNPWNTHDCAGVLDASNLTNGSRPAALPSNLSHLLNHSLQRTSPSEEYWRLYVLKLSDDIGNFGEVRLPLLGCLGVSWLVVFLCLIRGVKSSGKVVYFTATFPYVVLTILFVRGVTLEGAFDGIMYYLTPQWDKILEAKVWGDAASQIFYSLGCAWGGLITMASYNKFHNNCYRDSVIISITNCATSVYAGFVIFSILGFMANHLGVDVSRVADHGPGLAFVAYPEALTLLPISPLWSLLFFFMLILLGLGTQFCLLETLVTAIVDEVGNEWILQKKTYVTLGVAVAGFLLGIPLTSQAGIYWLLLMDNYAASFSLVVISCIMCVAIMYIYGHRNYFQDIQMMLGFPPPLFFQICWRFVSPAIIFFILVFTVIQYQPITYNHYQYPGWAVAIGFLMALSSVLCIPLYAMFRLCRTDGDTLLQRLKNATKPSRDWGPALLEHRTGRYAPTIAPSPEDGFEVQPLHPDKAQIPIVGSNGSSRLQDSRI
Experimental: Glycine Uptake Inhibition Experiment
A glycine uptake experiment was conducted in accordance with the method published in Neuron, 8, 927-935, 1992. In the experiment, T98G cells (glioma cells) expressing human type 1 glycine transporter (GlyT1) were used. The T98G cells were seeded in a 96-well plate at 2.0×10^4 cells/well and cultured overnight in a CO2 incubator. The test substance was dissolved in a 100% DMSO solution and then dissolved in a 10 mM HEPES buffer solution (pH 7.4) containing 150 mM sodium chloride, 1 mM calcium chloride, 5 mM potassium chloride, 1 mM magnesium chloride, 10 mM glucose and 0.2% bovine serum albumin. After removing the cell culture medium, the test substance was subjected to a 10-min pretreatment. Subsequently, the test substance and [^3H] glycine (final concentration: 250 nM) were added to the cells and reaction was performed at room temperature for 15 minutes. After the end of the reaction, the extracellular fluid was aspirated with a manifold to remove excess labeled glycine present outside the cells, and then the cells were lysed with a 0.5 M aqueous sodium hydroxide solution. The glycine content in the cells was determined by measuring the radioactivity in the cell lysate with a liquid scintillation counter. Glycine uptake in the presence of 10 μM ALX5407 was defined as non-specific uptake, and the value calculated by subtracting the amount of the non-specific uptake from the total uptake in the absence of 10 μM ALX5407 was defined as specific uptake. In addition, glycine uptake inhibitory activity (IC50 value) was calculated from an inhibition curve at the concentrations of each test substance ranging from 10^−9 to 10^−5 M. It should be noted that ALX5407 is an HCl salt of N-[(3R)-3-([1,1′-biphenyl]-4-yloxy)-3-(4-fluorophenyl)propyl]-N-methylglycine.

For `COc1cccnc1CN1C(=O)C(F)(F)c2c([C@H](C)O)cccc21` [Compound 247, 3,3-difluoro-4-[(1S)-1-hydroxyethyl]-1-[(3-methoxypyridin-2-yl)methyl]-1,3-dihydro-2H-indol-2-one], which IC50 is on record?
Its IC50 is 0.58 µM.

With `C[C@H](O)c1cccc2c1C(F)(F)C(=O)N2Cc1ccc(C(F)(F)F)c(C#N)n1` [Compound 216, 6-({3,3-difluoro-4-[(1S)-1-hydroxyethyl]-2-oxo-2,3-dihydro-1H-indol-1-yl}methyl)-3-(trifluoromethyl) pyridine-2-carbonitrile] as the compound, how does the IC50 read?
Its IC50 is 0.0094 µM.

Which IC50 does the source give for `O=C1N(Cc2cncc(Cl)c2)c2c(F)ccc(C(O)C(F)F)c2C1(F)F` (single isomer, unassigned) [Compound 254, 1-[(5-chloropyridin-3-yl)methyl]-4-(2,2-difluoro-1-hydroxyethyl)-3,3,7-trifluoro-1,3-dihydro-2H-indol-2-one] here?
The IC50 was 6.8 µM.

With `COc1ncc(CN2C(=O)C(F)(F)c3c([C@H](C)O)cccc32)cc1Cl` [Compound 222, 1-[(5-chloro-6-methoxypyridin-3-yl)methyl]-3,3-difluoro-4-[(1S)-1-hydroxyethyl)-1,3-dihydro-2H-indol-2-one] as the compound, how does the IC50 read?
Its IC50 is 0.0086 µM.

How did the IC50 turn out when `C[C@H](O)c1cccc2c1C(F)(F)C(=O)N2Cc1ncccc1C#N` [Compound 213, 2-({3,3-difluoro-4-[(S)-1-hydroxyethyl]-2-oxo-2,3-dihydro-1-indol-1-yl}methyl)pyridine-3-carbonitrile] was run?
Its IC50 is 0.04 µM.

With `COc1ccc(CN2C(=O)C(F)(F)c3c(C(O)C(F)F)cccc32)cn1` (single isomer, unassigned) [Compound 255, 4-(2,2-difluoro-1-hydroxyethyl)-3,3-difluoro-1-[(6-methoxypyridin-3-yl)methyl)-1,3-dihydro-2H-indol-2-one] as the compound, how does the IC50 read?
Its IC50 is 0.069 µM.

`CC(O)c1c(F)ccc2c1C(F)(F)C(=O)N2Cc1ccnc(C#N)c1` (single isomer, unassigned) [Compound 182, 4-{[3,3,5-trifluoro-4-(1-hydroxyethyl)-2-oxo-2,3-dihydro-1H-indol-1-yl]methyl}pyridine-2-carbonitrile] was tested. Which IC50 did it give?
Its IC50 is 1.7 µM.

How did the IC50 turn out when `COc1nc(Cl)ccc1CN1C(=O)C(F)(F)c2c([C@H](C)O)cccc21` [Compound 230, 1-[(6-chloro-2-methoxypyridin-3-yl)methyl]-3,3-difluoro-4-[(1S)-1-hydroxyethyl]-1,3-dihydro-2H-indol-2-one] was run?
The IC50 was 0.063 µM.

`C[C@H](O)c1cccc2c1C(F)(F)C(=O)N2Cc1ccc(Cl)c(C#N)n1` [Compound 202, 3-chloro-6-({3,3-difluoro-4-[(1S)-1-hydroxyethyl]-2-oxo-2,3-dihydro-1H-indol-1-yl)methyl)pyridine-2-carbonitrile] was tested. Which IC50 did it give?
The IC50 was 0.0069 µM.

same assay, conditions: glycine uptake inhibition

For `O=C1N(Cc2cccc(F)c2)c2cccc(C(O)C(F)F)c2C1(F)F` (single isomer, unassigned) [Compound 158, 4-(2,2-difluoro-1-hydroxyethyl)-3,3-difluoro-1-(3-fluorobenzyl)-1,3-dihydro-2H-indol-2-one], which IC50 is on record?
Its IC50 is 0.016 µM.

With `CC(O)c1cccc2c1C(F)(F)C(=O)N2Cc1cccc(Cl)n1` (single isomer, unassigned) [Compound 4] as the compound, how does the IC50 read?
Its IC50 is 0.0065 µM.

Which IC50 does the source give for `O=C1N(Cc2cccc(Cl)n2)c2cccc(C(O)C(F)(F)F)c2C1(F)F` (single isomer, unassigned) [Compound 9, 1-[(6-chloropyridin-2-yl)methyl]-3,3-difluoro-4-(2,2,2-trifluoro-1-hydroxyethyl)-1,3-dihydro-2H-indol-2-one] here?
The IC50 was 0.017 µM.

How did the IC50 turn out when `C[C@H](O)c1cccc2c1C(F)(F)C(=O)N2Cc1ccc(C(F)(F)F)o1` [Compound 94, 3,3-difluoro-4-[(1S)-1-hydroxyethyl]-1-{[5-(trifluoromethyl)furan-2-yl]methyl}-1,3-dihydro-2H-indol-2-one] was run?
Its IC50 is 0.006 µM.

For `COc1cccc(CN2C(=O)C(F)(F)c3c([C@H](C)O)cccc32)n1` [Compound 68, 3,3-difluoro-4-[(1S)-1-hydroxyethyl]-1-[(6-methoxypyridin-2-yl)methyl]-1,3-dihydro-2H-indol-2-one], which IC50 is on record?
Its IC50 is 0.076 µM.

For `C[C@H](O)c1cccc2c1C(F)(F)C(=O)N2Cc1ccncc1` [Compound 64, 3,3-difluoro-4-[(1S)-1-hydroxyethyl]-1-(pyridin-4-ylmethyl)-1,3-dihydro-2H-indol-2-one], which IC50 is on record?
Its IC50 is 0.39 µM.

`N#Cc1cccc(CN2C(=O)C(F)(F)c3c(C(O)C(F)(F)F)cccc32)n1` (stereo not drawn) [Compound 13, 6-{[3,3-difluoro-2-oxo-4-(2,2,2-trifluoro-1-hydroxyethyl)-2,3-dihydro-1H-indol-1-yl]methyl}pyridine-2-carbonitrile] was tested. Which IC50 did it give?
The IC50 was 0.096 µM.

With `O=C1N(Cc2cncc(Cl)c2)c2ccc(F)c(C(O)C(F)(F)F)c2C1(F)F` (stereo not drawn) [Compound 48, 1-[(5-chloropyridin-3-yl)methyl]-3,3,5-trifluoro-4-(2,2,2-trifluoro-1-hydroxyethyl)-1,3-dihydro-2H-indol-2-one] as the compound, how does the IC50 read?
Its IC50 is 0.085 µM.

With `O=C1N(Cc2ccnc(C(F)F)c2)c2cccc([C@@H](O)C(F)(F)F)c2C1(F)F` [Compound 139, 1-[[2-(difluoromethyl)pyridin-4-yl]methyl]-3,3-difluoro-4-[(1R)-2,2,2-trifluoro-1-hydroxyethyl]-1,3-dihydro-2H-indol-2-one] as the compound, how does the IC50 read?
Its IC50 is 0.045 µM.

How did the IC50 turn out when `O=C1N(Cc2nc3ccccc3[nH]c2=O)c2cccc([C@@H](O)C(F)(F)F)c2C1(F)F` [Compound 140, 3-({3,3-difluoro-2-oxo-4-[(1R)-2,2,2-trifluoro-1-hydroxyethyl]-2,3-dihydro-1H-indol-1-yl}methyl) quinoxalin-2(1H)-one] was run?
The IC50 was 0.033 µM.

Which IC50 does the source give for `C[C@H](O)c1cccc2c1C(F)(F)C(=O)N2Cc1ccnc(C#N)c1` [Compound 40, 4-({3,3-difluoro-4-[(1S)-1-hydroxyethyl]-2-oxo-2,3-dihydro-1H-indol-1-yl}methyl)pyridine-2-carbonitrile] here?
The IC50 was 0.038 µM.

Which IC50 does the source give for `N#Cc1cc(CN2C(=O)C(F)(F)c3c(C(O)C(F)F)cccc32)ccn1` (single isomer, unassigned) [Compound 109, 4-{[4-(2,2-difluoro-1-hydroxyethyl]-3,3-difluoro-2-oxo-2,3-dihydro-1H-indol-1-yl]methyl}pyridine-2-carbonitrile] here?
The IC50 was 0.088 µM.

With `C[C@H](O)c1cccc2c1C(F)(F)C(=O)N2Cc1ccnc(-n2nccn2)c1` [Compound 45, 3,3-difluoro-4-[(1S)-1-hydroxyethyl]-1-{[2-(2H-1,2,3-triazol-2-yl)pyridin-4-yl]methyl}-1,3-dihydro-2H-indol-2-one] as the compound, how does the IC50 read?
The IC50 was 0.11 µM.

`O=C1N(Cc2cnc3ccccc3c2)c2cccc(C(O)C(F)F)c2C1(F)F` (single isomer, unassigned) [Compound 143, 4-(2,2-difluoro-1-hydroxyethyl)-3,3-difluoro-1-(quinolin-3-ylmethyl)-1,3-dihydro-2H-indol-2-one] was tested. Which IC50 did it give?
The IC50 was 0.048 µM.

Which IC50 does the source give for `CC(c1cccc(Cl)n1)N1C(=O)C(F)(F)c2c([C@H](C)O)cccc21` (stereo partly drawn) [Compound 51, 1-[1-(6-chloropyridin-2-yl)ethyl]-3,3-difluoro-4-[(1S)-1-hydroxyethyl]-1,3-dihydro-2H-indol-2-one] here?
The IC50 was 0.26 µM.

Which IC50 does the source give for `CC(O)c1cccc2c1C(F)(F)C(=O)N2Cc1cccc(Cl)n1` (stereo not drawn) [Compound 1, 1-[(6-chloropyridin-2-yl)methyl]-3,8-difluoro-4-(1-hydroxyethyl)-1,3-dihydro-2H-indol-2-one] here?
The IC50 was 0.015 µM.

`O=C1N(Cc2cncc(Cl)c2)c2ccc(Cl)c([C@@H](O)C(F)(F)F)c2C1(F)F` [Compound 95, 5-chloro-1-[(5-chloropyridin-3-yl)methyl]-3,3-difluoro-4-[(1R)-2,2,2-trifluoro-1-hydroxyethyl]-1,3-dihydro-2H-indol-2-one] was tested. Which IC50 did it give?
Its IC50 is 1 µM.

same assay, conditions: table section whose head prints (μm)

Which IC50 does the source give for `COc1nc(CN2C(=O)C(F)(F)c3c(C(O)C(F)F)cccc32)ccc1F` (single isomer, unassigned) [Compound 265, 4-(2,2-difluoro-1-hydroxyethyl)-3,3-difluoro-1-[(5-fluoro-6-methoxypyridin-2-yl)methyl]-1,3-dihydro-2H-indol-2-one] here?
Its IC50 is 0.93 µM.
